The results in this text go back to patent US9556165B2 (priority 2012, dated 2017).

Common to all, as to type: cell-based
For one assay, the system named is B. fragilis 6688. As to the kind of experiment: MIC determination, broth microdilution (CLSI). The note with it: broth microdilution; for MIC: Bacteroides fragilis, 6688, strain 15, read-out: MIC strain 15 (B. fragilis 6688). A general note: In broth dilution the organism is exposed to a series of concentrations in liquid medium.
Another assay deals with C. perfringens DSM756. As to the kind of experiment: microbe, parasite or virus in culture. Conditions: broth microdilution; for MIC: Clostridium perfringens, DSM756, read-out: MIC strain 16 (C. perfringens DSM756), strain 16.
The next assay deals with E. coli J62. As to the kind of experiment: MIC determination, broth microdilution (CLSI). Conditions: broth microdilution; for MIC: Escherichia coli, J62, strain 17, read-out: MIC strain 17 (E. coli J62).
The subject of the next assay is E. cloacae 34654. As to the kind of experiment: MIC determination, broth microdilution (CLSI). The note with it: for MIC: Enterobacter cloacae, 34654, strain 3.
A further assay concerns C. freundii K21/3034. As to the kind of experiment: MIC determination, broth microdilution (CLSI). The note with it: for MIC: Citrobacter freundii, K21/3034, strain 4.
The subject of assay [1] is P. aeruginosa 2297 (AmpC wt). As to the kind of experiment: MIC determination, broth microdilution (CLSI). Conditions: Pseudomonas aeruginosa, strain 7.
The subject of another assay is H. influenzae ATCC 49247. As to the kind of experiment: MIC determination, broth microdilution (CLSI). The note with it: broth microdilution; for MIC: Haemophilus influenzae, ATCC49247, strain 12, read-out: MIC strain 12 (H. influenzae ATCC 49247).
In the next assay the test system is P. aeruginosa PAO1. As to the kind of experiment: MIC determination, broth microdilution (CLSI). Conditions: for MIC: Pseudomonas aeruginosa, PAO1, strain 6.
The next assay concerns M. morganii 126/3048. As to the kind of experiment: MIC determination, broth microdilution (CLSI). Conditions: for MIC: Morganella morganii, 126/3048, strain 5.
The next assay has as its system S. pneumoniae 113. As to the kind of experiment: MIC determination, broth microdilution (CLSI). The note with it: broth microdilution; for MIC: Streptococcus pneumoniae, 113, strain 13, read-out: MIC strain 13 (S. pneumoniae 113).
The test system of another assay is A. baumannii ATCC15308. As to the kind of experiment: MIC determination, broth microdilution (CLSI). The note with it: for MIC: Acinetobacter baumannii, ATCC15308, strain 9.
The test system of another assay is E. coli ATCC25922. As to the kind of experiment: MIC determination, broth microdilution (CLSI). The note with it: for MIC: Escherichia coli, ATCC25922, strain 1.
The test system of the next assay is S. aureus 133. As to the kind of experiment: MIC determination, broth microdilution (CLSI).
The next assay concerns S. maltophilia ICB7569. As to the kind of experiment: MIC determination, broth microdilution (CLSI). Conditions: Stenotrophomonas maltophilia, ICB7569, strain 10.
Another assay deals with E. coli J62-TEM-3. As to the kind of experiment: MIC determination, broth microdilution (CLSI). The note with it: broth microdilution; for MIC: Escherichia coli, J62TEM3, read-out: MIC strain 18 (E. coli J62-TEM-3), strain 18.
In assay [2] the test system is P. aeruginosa 2297-con (AmpC derepressed). As to the kind of experiment: MIC determination, broth microdilution (CLSI). Conditions: Pseudomonas aeruginosa, read-out: strain 8 MIC, strain 8.
Another assay has as its system Bacteria. As to the kind of experiment: MIC determination in combination with β-lactamase inhibitors (constant 4 μg/mL).
The subject of another assay is K. pneumoniae 60. As to the kind of experiment: MIC determination, broth microdilution (CLSI). Conditions: for MIC: Klebsiella pneumoniae, 60, strain 2.
The mark [3] stands for this setting: Staphylococcus aureus, 133, strain 11, read-out: strain 11 MIC.

≈ marks a conversion by molar mass, not a printed value. Read-outs that look alike come from different tables or passages of the source.

As for `CC1(C)[C@H](NC(=O)/C(=N\OCCOc2ccc(C3=NCC(N)CN3)cc2)c2csc(N)n2)C(=O)N1OS(=O)(=O)O` (stereo partly drawn) [Example 86, (2Z)-2-({2-[4-(5-Amino-1,4,5,6-tetrahydropyrimidin-2-yl)phenoxy]ethoxy}imino)-2-(2-amino-1,3-thiazol-4-yl)-N-[(3S)-2,2-dimethyl-4-oxo-1-(sulfooxy)azetidin-3-yl]ethanamide], the MIC with B. fragilis 6688 stood at 4 µg/mL (≈ 6.7 µM); in the assay with C. perfringens DSM756, 2 µg/mL (≈ 3.35 µM); in the assay with E. coli J62 it was 0.25 µg/mL (≈ 0.419 µM); in the assay on E. cloacae 34654, 0.5 µg/mL (≈ 0.838 µM); in the assay with C. freundii K21/3034 it was 0.25 µg/mL (≈ 0.419 µM); in assay [1] it was 8 µg/mL (≈ 13.4 µM). Further, the MIC in the assay with H. influenzae ATCC 49247 is not above 0.063 µg/mL; against P. aeruginosa PAO1 it was 4 µg/mL (≈ 6.7 µM); in the assay with M. morganii 126/3048, 0.5 µg/mL (≈ 0.838 µM); in the assay on S. pneumoniae 113, not above 0.063 µg/mL; against A. baumannii ATCC15308, 2 µg/mL (≈ 3.35 µM); against E. coli ATCC25922, 0.25 µg/mL (≈ 0.419 µM). The MIC was not above 0.063 µg/mL with S. aureus 133 (setting [3]); 4 µg/mL (≈ 6.7 µM) in the assay with S. aureus 133 (Staphylococcus aureus, 133, strain 14, broth microdilution, read-out: MIC strain 14 (S. aureus 133)); 32 µg/mL (≈ 53.6 µM) in the assay on S. maltophilia ICB7569; 16 µg/mL (≈ 26.8 µM) in the assay with E. coli J62-TEM-3; 8 µg/mL (≈ 13.4 µM) in assay [2]; 0.5 µg/mL (≈ 0.838 µM) with K. pneumoniae 60. In addition, the “MIC strain 19 (E. coli J62-TEM-3 + 4 μg/mL clavulanic acid)” value in the assay with Bacteria was determined as 0.25 µg/mL. The “MIC strain 20 (E. coli J62-TEM-3 + 4 μg/mL sulbactam)” value with Bacteria was 0.25 µg/mL. Also, the “MIC strain 21 (E. coli J62-TEM-3 + 4 μg/mL tazobactam)” value in the assay on Bacteria amounted to 0.5 µg/mL.
As for `CC1(C)[C@H](NC(=O)/C(=N\OCC(Oc2ccc(C(=N)N)cc2)C(=O)O)c2csc(N)n2)C(=O)N1OS(=O)(=O)O` (single isomer, unassigned) [Example 87B], the “MIC strain 15 (B. fragilis 6688)” value against B. fragilis 6688 (strain 15) worked out at 16 µg/mL (≈ 27.3 µM). The “MIC strain 16 (C. perfringens DSM756)” value with C. perfringens DSM756 (strain 16) was 16 µg/mL (≈ 27.3 µM). In addition, in the assay with E. coli J62 (strain 17), the “MIC strain 17 (E. coli J62)” value was found to be 1 µg/mL (≈ 1.71 µM). The “strain 3 MIC” value in the assay on E. cloacae 34654 (strain 3) worked out at 1 µg/mL. Moreover, the “strain 4 MIC” value in the assay with C. freundii K21/3034 (strain 4) stood at 0.5 µg/mL. In assay [1], the MIC came to 32 µg/mL (≈ 54.6 µM). Moreover, in the assay with H. influenzae ATCC 49247 (strain 12), the “MIC strain 12 (H. influenzae ATCC 49247)” value came to 0.125 µg/mL (≈ 0.213 µM). Also, the “strain 6 MIC” value in the assay on P. aeruginosa PAO1 (strain 6) came to 16 µg/mL. The “strain 5 MIC” value in the assay with M. morganii 126/3048 (strain 5) is 0.25 µg/mL. The “MIC strain 13 (S. pneumoniae 113)” value against S. pneumoniae 113 (strain 13) was 1 µg/mL (≈ 1.71 µM). Also, the “strain 9 MIC” value in the assay on A. baumannii ATCC15308 (strain 9) turned out to be 16 µg/mL. In the assay on E. coli ATCC25922 (strain 1), the “strain 1 MIC” value turned out to be 0.5 µg/mL. In the assay on S. aureus 133 (strain 11), the “strain 11 MIC” value is reported as “≦0.063 mg/L”. The same compound registered an MIC against S. maltophilia ICB7569 of 16 µg/mL (≈ 27.3 µM). Also, in the assay with E. coli J62-TEM-3 (strain 18), the “MIC strain 18 (E. coli J62-TEM-3)” value is 32 µg/mL (≈ 54.6 µM). For the same compound, in [2], the MIC was found to be 32 µg/mL (≈ 54.6 µM). In addition, in the assay on Bacteria, the “MIC strain 19 (E. coli J62-TEM-3 + 4 μg/mL clavulanic acid)” value was 0.5 µg/mL, the “MIC strain 20 (E. coli J62-TEM-3 + 4 μg/mL sulbactam)” value was 1 µg/mL and the “MIC strain 21 (E. coli J62-TEM-3 + 4 μg/mL tazobactam)” value worked out at 2 µg/mL. Moreover, in the assay on K. pneumoniae 60 (strain 2), the “strain 2 MIC” value came to 0.5 µg/mL.
`CNCCNC(=N)c1ccc(OC[C@H](O/N=C(\C(=O)N[C@@H]2C(=O)N(OS(=O)(=O)O)C2(C)C)c2csc(N)n2)C(=O)O)cc1` [Example 95, (2S)-2-({[(1Z)-1-(2-Amino-1,3-thiazol-4-yl)-2-{[(3S)-2,2-dimethyl-4-oxo-1-(sulfooxy)azetidin-3-yl]amino}-2-oxoethylidene]amino}oxy)-3-(4-{N-[2-(methylamino)ethyl]carbamimidoyl}phenoxy)propanoic acid]: the MIC in the assay with B. fragilis 6688 came out at 8 µg/mL (≈ 12.4 µM); in the assay with C. perfringens DSM756, 2 µg/mL (≈ 3.11 µM); in the assay on E. coli J62, 0.125 µg/mL (≈ 0.195 µM); against E. cloacae 34654, 0.125 µg/mL (≈ 0.195 µM); against C. freundii K21/3034, 0.125 µg/mL (≈ 0.195 µM); in assay [1], 2 µg/mL (≈ 3.11 µM). For the same compound, the MIC in the assay on H. influenzae ATCC 49247 was not above 0.063 µg/mL; in the assay with P. aeruginosa PAO1, 1 µg/mL (≈ 1.56 µM); with M. morganii 126/3048, not above 0.063 µg/mL; with S. pneumoniae 113 it was 0.5 µg/mL (≈ 0.778 µM); against A. baumannii ATCC15308, 2 µg/mL (≈ 3.11 µM); against E. coli ATCC25922 it was 0.125 µg/mL (≈ 0.195 µM). For the same compound, the MIC in the assay with S. aureus 133 (setting [3]) is not above 0.063 µg/mL; against S. maltophilia ICB7569 it was 4 µg/mL (≈ 6.22 µM); in the assay with E. coli J62-TEM-3, 4 µg/mL (≈ 6.22 µM); in [2] it was 2 µg/mL (≈ 3.11 µM); against K. pneumoniae 60 it was 0.125 µg/mL (≈ 0.195 µM). Besides, the “MIC strain 19 (E. coli J62-TEM-3 + 4 μg/mL clavulanic acid)” value in the assay with Bacteria is 0.125 µg/mL. Besides, the “MIC strain 20 (E. coli J62-TEM-3 + 4 μg/mL sulbactam)” value in the assay on Bacteria is “≦0.063 mg/L”. The “MIC strain 21 (E. coli J62-TEM-3 + 4 μg/mL tazobactam)” value with Bacteria was found to be 0.125 µg/mL.
